Measured values taken from US6972319B1, “Pituitary adenylate cyclase activating peptide (PACAP)receptor 3 (R3) agonists and their pharmacological methods of use” (priority 1999, dated 2005).
No end group written: not given here.

Key:
PACAP-R2 = target: T1, PACAP-R2 (Homo sapiens, UniProt P32241); test: Cyclic AMP SPA on CHO cells transfected with PACAP-R2; assay type: cell-based; settings: cAMP SPA, concentration at which 50% of maximum PACAP27 activity is achieved, NA = no detectable activities, read-out: R2 EC50
T1 construct: expressed in transfected cells; host or cells: CHO cells
T1 sequence (P32241 31-457): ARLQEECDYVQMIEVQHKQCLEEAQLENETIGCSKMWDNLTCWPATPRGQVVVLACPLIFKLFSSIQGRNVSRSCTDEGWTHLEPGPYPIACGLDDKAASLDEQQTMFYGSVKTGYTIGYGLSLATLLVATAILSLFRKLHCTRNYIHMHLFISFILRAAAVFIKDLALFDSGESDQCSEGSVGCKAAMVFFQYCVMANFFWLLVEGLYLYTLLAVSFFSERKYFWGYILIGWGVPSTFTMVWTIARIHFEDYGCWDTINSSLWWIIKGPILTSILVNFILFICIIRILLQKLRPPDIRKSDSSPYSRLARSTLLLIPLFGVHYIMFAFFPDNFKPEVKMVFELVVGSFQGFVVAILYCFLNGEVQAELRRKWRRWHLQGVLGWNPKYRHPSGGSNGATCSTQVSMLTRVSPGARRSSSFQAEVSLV
Description: CHO cells expressing the PACAP R3 were plated in 96-well plates (Costar) at 8×10^4 cell/well and grown at 37 C. for 24 hours in α MEM+nucleosides+glutamine (Giobco BRL), 10% FBS, 100 μg/ml Pen/Strep, 0.3 mg/ml glutamine, 1 mM HEPES, 0.5 mg/ml Geneticin (Gibco BRL). The media was removed and the plates were washed with PBS. The cells were incubated with a peptide, in Hepes-PBS-BSA with 0.4 mg/mlSoybean Trypsin Inhibitor, 0.5 mg/ml Bacitracin, 100 uM IBMX, for 15 min at 37 C. Cyclic AMP in the cell extracts was quantitated using the cAMP SPA direct screening assay system (Amersham Pharmacia Biotech Inc, Piscataway, N.J.,). The peptides shown in Table 3 were assayed for cAMP activity.
EC50 is defined as the concentration of the polypeptide at which 50% of maximum PACAP27 activity is achieved. “NA” denotes no detectable activities. “R3 Selectivity” is derived from the ratio of EC50 at R2 versus EC50 at R3.

PACAP-R3 = target: T2, PACAP-R3 (Homo sapiens, UniProt P41587); test: Cyclic AMP SPA on CHO cells expressing PACAP R3; assay type: cell-based; design: expressed in transfected cells; host or cells: CHO cells (Geneticin selection); settings: for EC50: cAMP SPA, CHO cells transfected with PACAP-R3, concentration at which 50% of maximum PACAP27 activity is achieved, NA = no detectable activities, read-out: R3 EC50; for R3 Selectivity: ratio of EC50 at R2 versus EC50 at R3
T2 sequence (P41587 24-438): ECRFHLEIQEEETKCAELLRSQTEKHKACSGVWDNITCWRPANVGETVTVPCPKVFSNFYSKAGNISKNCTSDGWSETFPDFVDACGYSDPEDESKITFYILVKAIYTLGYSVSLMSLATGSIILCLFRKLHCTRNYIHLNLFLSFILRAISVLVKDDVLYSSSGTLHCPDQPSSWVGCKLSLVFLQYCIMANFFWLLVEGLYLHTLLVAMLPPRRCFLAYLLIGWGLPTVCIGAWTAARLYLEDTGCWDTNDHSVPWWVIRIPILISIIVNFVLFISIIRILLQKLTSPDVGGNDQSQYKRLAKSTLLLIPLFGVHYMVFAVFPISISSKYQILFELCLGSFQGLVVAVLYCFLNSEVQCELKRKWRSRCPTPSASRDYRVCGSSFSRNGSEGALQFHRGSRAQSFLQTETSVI
How it was run: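 cAMP SPA readout; CHO stable lines, 24 h culture before use. Peptide treatment 15 min, 37 C, buffer with IBMX 100 uM plus trypsin inhibitor and bacitracin. EC50 = conc. reaching half of max PACAP27 response; R3 selectivity = EC50(R2)/EC50(R3).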

Compound | EC50 (PACAP-R2) | EC50 (PACAP-R3) | R3 Selectivity (PACAP-R3)
HSDAVFTDNYTRLRKQMAAKKYLNSIKNIR [Peptide R3P141] | 20 nM | 0.2 nM | 100
HSDAVFTDNYTRLRKQMAVKKYLNSIKKKR [Peptide R3P57] | 42 nM | 0.23 nM | 190
H-HSDAVFTDNYTRLRKQMAKKKYLNSIKNKR [Peptide R3P104] | 100 nM | 0.2 nM | 500
HSDAVFTDNYTRLRKQVAAKKYLQSILKKR [Peptide R3P84] | 2.5 nM | 0.06 nM | 40
HSDAVFTDNYTRLRKQMAAKKYLNSIKNLR [Peptide R3P142] | 6 nM | 0.2 nM | 30
HSDGIFTDSYSRYREQMAVKKYLAAVL-NH2 [PAC15] | 2.4 nM | 0.2 nM | 12
HSDGIFTDSYKRYRKQMAVKKYLAAVL-NH2 [PAC11] | 10 nM | 140 nM | 0.1
HSDAVFTDNYTRLRKQMAAKKYLNSIKNMR [Peptide R3P143] | 6 nM | 0.2 nM | 30
HSDAVFTDNYTRLRKQVAVKKYLQSILKKR [Peptide R3P88] | 0.89 nM | 0.08 nM | 12
CC[C@H](C)[C@H](NC(=O)[C@H](CO)NC(=O)[C@H](CC(N)=O)NC(=O)[C@H](CC(C)C)NC(=O)[C@H](Cc1ccc(O)cc1)NC(=O)[C@H](CCCCN)NC(=O)[C@H](CCCCN)NC(=O)[C@@H](NC(=O)[C@H](C)NC(=O)[C@H](CCSC)NC(=O)[C@H](CCC(N)=O)NC(=O)[C@H](CCCCN)NC(=O)[C@H](CCCNC(=N)N)NC(=O)[C@H](CC(C)C)NC(=O)[C@H](CCCNC(=N)N)NC(=O)[C@@H](NC(=O)[C@H](Cc1ccc(O)cc1)NC(=O)[C@H](CC(N)=O)NC(=O)[C@H](CC(=O)O)NC(=O)[C@@H](NC(=O)[C@H](Cc1ccccc1)NC(=O)[C@@H](NC(=O)[C@H](C)NC(=O)[C@H](CC(=O)O)NC(=O)[C@H](CO)NC(=O)[C@@H](N)Cc1c[nH]cn1)C(C)C)[C@@H](C)O)[C@@H](C)O)C(C)C)C(=O)N[C@@H](CCCCN)C(=O)N[C@@H](CC(N)=O)C(=O)N[C@@H](CCCCN)C(=O)N[C@@H](CCCNC(=N)N)C(=O)N[C@@H](Cc1ccc(O)cc1)C(=O)O [Peptide R3P59] | 10 nM | 0.15 nM | 70
H-HSDAVFTDNYTRLRKQMAAKKYLNSIKNKD [Peptide R3P155] | 40 nM | 0.4 nM | 100
Ac-HSDAVFTENYTKLRKQLAAKKYLNDLKKGGT-NH2 [Peptide R3P1] | > 100 nM | 2 nM | >50
H-HSDAVFTDNYTRLRKQMAAKKYLNSISNKR [Peptide R3P129] | 50 nM | 1 nM | 50
HSDAVFTDNYTRLRKQMAAKKYLNSIKNRI [rR3P174] | 18 nM | 0.2 nM | 90
HSDAVFTDNYTRLRKQMAAKKYLNSIKNDR [Peptide R3P136] | 20 nM | 0.3 nM | 70
HSDAVFTDNYTRLRKQMAAKKYLNSIKNKP [Peptide R3P165] | 150 nM | 0.5 nM | 300
HSDAVFTDNYTRLRKQMARKKYLNSIPNRI [rR3P182] | 280 nM | 3.2 nM | 90
HSDAVFTDNYTRLRKQMAAKKYLNSIKKGGT [Peptide R3P26] | > 100 nM | 0.55 nM | >180
HSDGIFTDSYSRYRKQKAVKKYLAAVL-NH2 [PAC17] | 0.25 nM | 0.15 nM | 1.6
HSDAVFTDNYTRLRKQMAAKKYLNSIKNKG [Peptide R3P158] | 6 nM | 0.07 nM | 90
HSDAVFTDQYTRLRKQMAAKKYLNSIKNKRY [Peptide R3P71] | 56 nM | 0.09 nM | 660
HSDGIFTKSYSRYRKQMAVKKYLAAVL-NH2 [PAC8] | 43 nM | 47 nM | 1
HSDAVFTDNYTRLRKQMAAKKYLNSIKNNR [Peptide R3P144] | 300 nM | 3 nM | 100

Compound | EC50 (PACAP-R2) | EC50 (PACAP-R3) | R3 Selectivity (PACAP-R3)
HSDAVFTDNYTRLRKQLAAKKYLNDILKGGT [Peptide R3P23] | 10 nM | 0.43 nM | 23
HSDAVFTDNYTRLRKQMAAKKYLQSIKNKRY [Peptide R3P69] | 90 nM | 0.5 nM | 190
HSDAVFTENYTRLRKQMAVKKYLNSLKK-NH2 [Peptide R3P7] | 2 nM | 4 nM | 0.5
HSDAVFTDNYTRLRKQMAKKKYLNSIKNRI [rR3P176] | 300 nM | 2 nM | 150
HSDAVFTDNYTRLRKQMARKKYLNSIQNRI [rR3P187] | > 130 nM | 1.6 nM | >80
HSDAVFTDNYTRLRKQMAVKKYLNSILK [Peptide R3P43] | 0.8 nM | 0.08 nM | 10
HSDAVFTDNYTRLRKQMAKKKYLNSIRNRI [rR3P191] | > 200 nM | 2.7 nM | >80
H-HSDGIFTDSYSEYRKQMAVKKYLAAVL-NH2 [PAC12] | 150 nM | 3 nM | 50
HSDAVFTDNYTRLRKQMASKKYLNSIRNRI [rR3P193] | 200 nM | 1.9 nM | 110
HSDAVFTDNYTRLRKQMAAKKYLNSIKNER [Peptide R3P137] | 30 nM | 0.3 nM | 100
HSDAVFTDNYTRLRKQMARKKYLNSIKNKR [Peptide R3P110] | 100 nM | 0.5 nM | 200
HSDGIFTDSYSRYRKQMAVKKYLAAVKKYLAAVRHG-NH2 [Peptide R3P17] | 9 nM | 4 nM | 2
HSDAVFTDNYTRLRKQMAAKKYLNSIKNKE [Peptide R3P156] | 100 nM | 1 nM | 100
HSDGIFTDSYSRYRKQMAVEKYLAAVL-NH2 [PAC20] | 20 nM | 0.7 nM | 30
HSDAVFTDNYTRLRKQMAGKKYLNSIKNKR [Peptide R3P101] | 400 nM | 1 nM | 400
HSDAVFTDNYTRLRKQVAAKKYLQSIKNK [Peptide R3P86] | 90 nM | 0.8 nM | 110
HSDAVFTDNYTRLRKQMAVKKYLNSIKKKRY [Peptide R3P56] | 40 nM | 0.4 nM | 100
H-HSDAVFTDNYTRLRKQMAAKHYLNSIKNKRY [Peptide R3P74] | 90 nM | 0.6 nM | 150
HSDAVFTDNYTRLRKQVAAKKYLQSILNKRY [Peptide R3P92] | 2 nM | 0.02 nM | 100
HSDAVFTDNYTRLRKQMAAKKYLNSIKKKR [Peptide R3P53] | 500 nM | 0.2 nM | 2500
HSDAVFTDNYTRLRKQLAAKKYLNDIKK [Peptide R3P33] | > 100 nM | 0.5 nM | >200
HSDAVFTDNYTRLRKQMAAKKYLNSIANKR [Peptide R3P116] | 20 nM | 1 nM | 20
